Measured values: BindingDB's records for doi:10.1080/14756360801915476 (Instituto De Parastiologia Y Biomedicina "Lopez-Neyra, 2009)

Key:
Assay in all cases: Inhibition Assay
Conditions in all cases: pH 8; 25 °C
[1] = molecular target: T1, Deoxyuridine 5'-triphosphate nucleotidohydrolase, mitochondrial (Homo sapiens, UniProt P33316)
T1 sequence (P33316 whole entry): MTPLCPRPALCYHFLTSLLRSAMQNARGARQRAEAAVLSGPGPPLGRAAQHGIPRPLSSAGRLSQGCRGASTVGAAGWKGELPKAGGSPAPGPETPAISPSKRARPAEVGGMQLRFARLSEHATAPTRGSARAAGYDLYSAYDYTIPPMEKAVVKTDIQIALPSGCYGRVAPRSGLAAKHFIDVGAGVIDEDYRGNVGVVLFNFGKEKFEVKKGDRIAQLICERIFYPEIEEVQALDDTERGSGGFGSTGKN
Excerpt: (§1) Nucleotide hydrolysis was monitored by mixing enzyme and substrate with a rapid kinetic accessory (Hi-Tech Scientific) attached to a spectrophotometer (Cary 50). Protons, released through the hydrolysis of nucleotides, were neutralized with […] and monitored spectrophotometrically at the absorbance peak of the basic form of the indicator.

[2] = molecular target: T2, Deoxyuridine 5'-triphosphate nucleotidohydrolase (Plasmodium falciparum (isolate 3D7), UniProt Q8II92)
T2 sequence (Q8II92 whole entry): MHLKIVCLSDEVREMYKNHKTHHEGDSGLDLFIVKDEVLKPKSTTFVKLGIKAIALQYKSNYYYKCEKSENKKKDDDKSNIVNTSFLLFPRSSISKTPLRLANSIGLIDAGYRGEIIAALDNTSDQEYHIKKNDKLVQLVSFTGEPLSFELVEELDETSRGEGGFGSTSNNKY
Excerpt: as §1

dCTP deaminase = molecular target: T3, dCTP deaminase (Campylobacter jejuni subsp. jejuni serotype O:2 (strain ATCC 700819 / NCTC 11168), UniProt Q9PN07)
T3 sequence (Q9PN07 whole entry): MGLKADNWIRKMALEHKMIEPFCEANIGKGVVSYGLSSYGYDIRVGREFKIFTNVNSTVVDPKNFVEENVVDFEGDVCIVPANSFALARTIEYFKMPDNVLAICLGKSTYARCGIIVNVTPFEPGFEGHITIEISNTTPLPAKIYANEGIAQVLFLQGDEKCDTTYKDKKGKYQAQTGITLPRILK
Excerpt: as §1

SMILES	Ki [1] [µM]	Ki [2] [µM]	Ki (dCTP deaminase) [µM]
CC(C)(C)[Si](OCC1C=CC(n2ccc(=O)[nH]c2=O)O1)(c1ccccc1)c1ccccc1 (stereo not drawn) [dUTPase inhibitor, 5]	> 1000	1.16	
O=c1ccn(C2C=CC(COC(c3ccccc3)(c3ccccc3)c3ccccc3)O2)c(=O)[nH]1 (stereo not drawn) [dUTPase inhibitor, 2]			1000
O=c1ccn(C2CC(O)C(COP(=O)(Oc3ccccc3)Oc3ccccc3)O2)c(=O)[nH]1 (stereo not drawn) [dUTPase inhibitor, 1]	135	238	1000
CC(C)[Si](OCC1OC(n2ccc(=O)[nH]c2=O)CC1O)(C(C)C)C(C)C (stereo not drawn)	1000	227	
CC(C)(C)[Si](OCC1OC(n2ccc(=O)[nH]c2=O)CC1O)(c1ccccc1)c1ccccc1 (stereo not drawn)	805	4.2	
O=C(OCC1C=CC(n2ccc(=O)[nH]c2=O)O1)C12CC3CC(CC(C3)C1)C2 (stereo not drawn) [dUTPase inhibitor, 3]	298	57.7	547
O=c1ccn(C2CC(O)C(CO[Si](c3ccccc3)(c3ccccc3)c3ccccc3)O2)c(=O)[nH]1 (stereo not drawn)	908	2.8	
O=c1ccn(C2CC(O)C(CNCc3ccccc3)O2)c(=O)[nH]1 (stereo not drawn)	1000		
CC(C)(C)[Si](C)(C)OCC1OC(n2ccc(=O)[nH]c2=O)CC1F (stereo not drawn) [dUTPase inhibitor, 6]	> 1000	6.28	
